Read-outs that look alike come from different tables or passages of the source.

In assay [1] the test system is PDGF-R. As to the kind of experiment: PDGF-R Assay (cellular ELISA, U1242 cells). It counts as cell-based. Also on record: concentration or dose not given beside the values. The gist of the method:
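Cellular ELISA for receptor autophosphorylation: after 2 hr test-compound treatment of serum-free U1242 cells at 37°C, ligand is added for 5–10 min, cells are lysed (HNTG) and receptor captured by specific antibody. Anti-phosphotyrosine plus secondary antibody with ABTS colour read at 410/630 nm, compared with compound-free control cells.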

In assay [2] the target is T1, EGFR (Homo sapiens, UniProt P00533).
T1 construct: endogenous in cells; host or cells: A431 cells (lysate, captured with SUMO1 anti-EGFR antibody)
T1 sequence (P00533 25-1210): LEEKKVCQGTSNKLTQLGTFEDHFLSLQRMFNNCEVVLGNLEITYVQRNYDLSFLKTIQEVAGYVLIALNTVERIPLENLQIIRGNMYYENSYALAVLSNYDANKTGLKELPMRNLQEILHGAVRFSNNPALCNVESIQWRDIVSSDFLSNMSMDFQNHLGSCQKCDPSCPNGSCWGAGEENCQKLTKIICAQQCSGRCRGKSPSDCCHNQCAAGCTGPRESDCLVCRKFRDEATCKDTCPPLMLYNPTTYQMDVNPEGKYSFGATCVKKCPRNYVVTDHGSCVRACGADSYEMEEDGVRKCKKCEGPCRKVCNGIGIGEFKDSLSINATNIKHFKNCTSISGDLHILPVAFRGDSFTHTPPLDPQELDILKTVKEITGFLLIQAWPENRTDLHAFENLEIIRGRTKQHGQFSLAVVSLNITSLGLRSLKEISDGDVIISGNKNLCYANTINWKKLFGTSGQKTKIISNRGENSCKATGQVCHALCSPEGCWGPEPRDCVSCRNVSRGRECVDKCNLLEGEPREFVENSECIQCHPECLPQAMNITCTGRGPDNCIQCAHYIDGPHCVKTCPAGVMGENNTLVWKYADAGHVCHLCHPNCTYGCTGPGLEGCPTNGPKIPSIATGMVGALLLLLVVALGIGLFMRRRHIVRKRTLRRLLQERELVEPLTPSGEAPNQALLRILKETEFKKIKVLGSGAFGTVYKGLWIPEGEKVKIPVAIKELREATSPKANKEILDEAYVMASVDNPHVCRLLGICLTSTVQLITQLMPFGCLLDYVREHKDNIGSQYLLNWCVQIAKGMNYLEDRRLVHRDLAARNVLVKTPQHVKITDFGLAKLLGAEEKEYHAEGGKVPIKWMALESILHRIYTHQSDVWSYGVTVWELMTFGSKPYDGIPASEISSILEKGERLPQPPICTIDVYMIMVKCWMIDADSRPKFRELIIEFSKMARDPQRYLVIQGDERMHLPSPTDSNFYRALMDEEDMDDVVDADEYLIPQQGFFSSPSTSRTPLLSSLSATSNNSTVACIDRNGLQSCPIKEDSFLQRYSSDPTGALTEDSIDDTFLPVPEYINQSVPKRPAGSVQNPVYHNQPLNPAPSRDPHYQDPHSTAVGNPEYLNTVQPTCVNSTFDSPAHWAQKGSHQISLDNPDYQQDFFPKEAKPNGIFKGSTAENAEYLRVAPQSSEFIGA
The experiment in a line: Biochemical EGFR Assay. Also noted: concentration or dose not given beside the values. The gist of the method:
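Readout is ABTS absorbance at 410 nm after anti-phosphotyrosine and HRP-antibody detection of EGFR autophosphorylation. The kinase was immunocaptured from A431 lysate, exposed 30 min to test compound diluted 1:10 in TBS, then phosphorylated for 5 min with ATP/MnCl2 before an EDTA stop.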

With `Cc1c(Br)cc(Br)c2c1C(=Cc1cc(C(C)C)c(O)c(C(C)C)c1)C(=O)N2` [10724/H06], in assay [1], the “PDGF Kinase % Inhibition (P.119)” value was −20.8%. Besides, the “Biochem EGFR % Inhibition (P.167)” value in assay [2] is −8.2%.
Taken in the same sequence, the figures for `Cc1cc(C=C2C(=O)Nc3c(Br)cc(Br)c(C)c32)ccc1O` [10723/H06] were −17.4% and −11.8%.
As to `Cc1c(Br)cc(Br)c2c1C(=Cc1ccccc1C(F)(F)F)C(=O)N2` [10736/H03], the “PDGF Kinase % Inhibition (P.119)” value in assay [1] (protocol P.119) was 2.2%. Besides, in assay [2] (protocol P.167), the “Biochem EGFR % Inhibition (P.167)” value was −1.4%.
As for `Cc1c(Br)cc(Br)c2c1C(=Cc1ccc(O)c([N+](=O)[O-])c1)C(=O)N2` [10724/H03], the “PDGF Kinase % Inhibition (P.119)” value in assay [1] is reported as −7.6%. In addition, the “Biochem EGFR % Inhibition (P.167)” value in assay [2] is on record as 0.3%.
In the case of `Cc1c(Br)cc(Br)c2c1C(=Cc1ccccc1[N+](=O)[O-])C(=O)N2` [10726/H02], in assay [1], the “PDGF Kinase % Inhibition (P.119)” value is given as −8.3%. Besides, in assay [2], the “Biochem EGFR % Inhibition (P.167)” value is −11.2%.
On the same counts, the results for `Cc1c(Br)cc(Br)c2c1C(=Cc1sc3scc(C)c3c1C)C(=O)N2` [10724/H11] are −31.2% and −12.8%.
Turning to `Cc1c(Br)cc(Br)c2c1C(=Cc1ccc(N3CCOCC3)cc1)C(=O)N2` [10725/H08], the “PDGF Kinase % Inhibition (P.119)” value in assay [1] is 13.6%. In assay [2], the “Biochem EGFR % Inhibition (P.167)” value is on record as −3.7%.
Consider `Cc1c(Br)cc(Br)c2c1C(=Cc1ccc(N3CCN(C=O)CC3)cc1)C(=O)N2` [10725/H07], for which the “PDGF Kinase % Inhibition (P.119)” value in assay [1] is 2.6%. For the same compound, the “Biochem EGFR % Inhibition (P.167)” value in assay [2] is −13.3%.
With `Cc1c(Br)cc(Br)c2c1C(=Cc1c[nH]cn1)C(=O)N2` [10725/H11], the “PDGF Kinase % Inhibition (P.119)” value in assay [1] turned out to be 16.5%. In addition, the “Biochem EGFR % Inhibition (P.167)” value in assay [2] was determined as 0.5%.
Taken in the same sequence, the figures for `Cc1c(Br)cc(Br)c2c1C(=Cc1c(Br)cnn1-c1ccc(Cl)cc1)C(=O)N2` [10725/H10] were 12.2% and 9.1%.
With `Cc1c(Br)cc(Br)c2c1C(=Cc1ccc(O)c(O)c1O)C(=O)N2` [10723/H02], the “PDGF Kinase % Inhibition (P.119)” value in assay [1] worked out at 20.7%. In assay [2], the “Biochem EGFR % Inhibition (P.167)” value worked out at 72.8%.
Turning to `Cc1c(Br)cc(Br)c2c1C(=Cc1cccn1-c1ccc(Cl)cc1)C(=O)N2` [10724/H09], in assay [1], the “PDGF Kinase % Inhibition (P.119)” value was −13.1%. Also, the “Biochem EGFR % Inhibition (P.167)” value in assay [2] is given as −33.5%.
Consider `Cc1c(Br)cc(Br)c2c1C(=Cc1sccc1Br)C(=O)N2` [10725/H02], for which the “PDGF Kinase % Inhibition (P.119)” value in assay [1] was −19.9%. For the same compound, in assay [2], the “Biochem EGFR % Inhibition (P.167)” value is on record as −23.5%.
On the same counts, the results for `Cc1cc(C=C2C(=O)Nc3c(Br)cc(Br)c(C)c32)[nH]n1` [10725/H05] are 14.6% and −30.2%.
For the compound `Cc1c(Br)cc(Br)c2c1C(=Cc1ccc(C(=O)O)cc1)C(=O)N2` [10722/H05], the “PDGF Kinase % Inhibition (P.119)” value in assay [1] is 0.9%. In addition, the “Biochem EGFR % Inhibition (P.167)” value in assay [2] worked out at 1.1%.
Taken in the same sequence, the figures for `COc1cc(C)cc(O)c1C=C1C(=O)Nc2c(Br)cc(Br)c(C)c21` [10725/H06] were 6.9% and 0.3%.
On the same counts, the results for `Cc1c(Br)cc(Br)c2c1C(=Cc1cc(O)c(O)c(Br)c1)C(=O)N2` [10723/H04] are 53.3% and 7.1%.
Taken in the same sequence, the figures for `COc1ccc(C=C2C(=O)Nc3c(Br)cc(Br)c(C)c32)c(O)c1` [10723/H09] were 15.9% and −2.6%.
Consider `COc1ccc(Br)c(C=C2C(=O)Nc3c(Br)cc(Br)c(C)c32)c1O` [10725/H03], for which the “PDGF Kinase % Inhibition (P.119)” value in assay [1] is on record as −12.8%. Moreover, the “Biochem EGFR % Inhibition (P.167)” value in assay [2] is reported as −16.5%.
Turning to `Cc1c(Br)cc(Br)c2c1C(=Cc1ccc(Cl)cc1)C(=O)N2` [10736/H02], the “PDGF Kinase % Inhibition (P.119)” value in assay [1] (protocol P.119) is −6.1%. In addition, in assay [2] (protocol P.167), the “Biochem EGFR % Inhibition (P.167)” value is listed as −32.0%.
As to `CCCCN(CCCC)c1ccc(C=C2C(=O)Nc3c(Br)cc(Br)c(C)c32)cc1` [10722/H10], the “PDGF Kinase % Inhibition (P.119)” value in assay [1] is given as 7.2%. For the same compound, in assay [2], the “Biochem EGFR % Inhibition (P.167)” value was −11.2%.
On to `Cc1cccc(C=C2C(=O)Nc3c(Br)cc(Br)c(C)c32)c1` [10736/H04], for which the “PDGF Kinase % Inhibition (P.119)” value in assay [1] (protocol P.119) is −10.9%. In addition, the “Biochem EGFR % Inhibition (P.167)” value in assay [2] (protocol P.167) is −4.3%.
Take `O=C1Nc2ccc(CCCl)cc2C1=Cc1ccccc1C(F)(F)F` [10736/G03]: the “PDGF Kinase % Inhibition (P.119)” value in assay [1] stood at 1.4%. Also, in assay [2], the “Biochem EGFR % Inhibition (P.167)” value was 23.0%.
As to `Cc1c(Br)cc(Br)c2c1C(=Cc1c(O)cc(O)cc1O)C(=O)N2` [10722/H03], the “PDGF Kinase % Inhibition (P.119)” value in assay [1] was 26.6%. For the same compound, the “Biochem EGFR % Inhibition (P.167)” value in assay [2] was determined as 27.8%.
Taken in the same sequence, the figures for `COC(=O)Cc1c(Cl)[nH]c(C=C2C(=O)Nc3c(Br)cc(Br)c(C)c32)c1C(=O)OC` [10725/H09] were 9.3% and −28.4%.
For `O=C1Nc2ccc(CCCl)cc2C1=Cc1ccccc1F` [10736/G08], the “PDGF Kinase % Inhibition (P.119)” value in assay [1] (protocol P.119) is −9.2%. The “Biochem EGFR % Inhibition (P.167)” value in assay [2] (protocol P.167) is given as −9.2%.
With `Cc1c(Br)cc(Br)c2c1C(=Cc1ccc(C(F)(F)F)cc1)C(=O)N2` [10722/H11], the “PDGF Kinase % Inhibition (P.119)” value in assay [1] is reported as 15.7%. In addition, the “Biochem EGFR % Inhibition (P.167)” value in assay [2] was −16.3%.
Consider `O=C1Nc2ccc(S(=O)(=O)N3CCOCC3)cc2C1=Cc1ccccc1Cl` [10736/F11], for which the “PDGF Kinase % Inhibition (P.119)” value in assay [1] is 4.4%. Further, in assay [2], the “Biochem EGFR % Inhibition (P.167)” value was −23.4%.
On the same counts, the results for `Cc1cc(C=C2C(=O)Nc3c(Br)cc(Br)c(C)c32)cc(C(C)(C)C)c1O` [10726/H04] are 13.2% and 75.5%.
On the same counts, the results for `Cc1c(Br)cc(Br)c2c1C(=Cc1cc3c4c(c1O)CCCN4CCC3)C(=O)N2` [10724/H05] are −19.4% and −1.3%.
On the same counts, the results for `CCOC(=O)c1[nH]c(C=C2C(=O)Nc3c(Br)cc(Br)c(C)c32)c(C(=O)OC)c1C` [10726/H03] are −17.8% and 14.0%.
In the case of `Cc1c(Br)cc(Br)c2c1C(=Cc1ccc(F)cc1F)C(=O)N2` [10722/H06], the “PDGF Kinase % Inhibition (P.119)” value in assay [1] is 18.6%. Also, the “Biochem EGFR % Inhibition (P.167)” value in assay [2] is recorded as −2.0%.
Taken in the same sequence, the figures for `Cc1c(Br)cc(Br)c2c1C(=Cc1cc([N+](=O)[O-])c(O)c(C(C)(C)C)c1)C(=O)N2` [10722/H02] were 19.2% and 24.8%.
As to `Cc1c(Br)cc(Br)c2c1C(=Cc1cc(C(C)(C)C)cc(C(C)(C)C)c1O)C(=O)N2` [10723/H11], the “PDGF Kinase % Inhibition (P.119)” value in assay [1] is recorded as 29.7%. The “Biochem EGFR % Inhibition (P.167)” value in assay [2] is listed as −20.7%.
Taken in the same sequence, the figures for `Cc1c(Br)cc(Br)c2c1C(=Cc1ccc(N(C)C)c3ccccc13)C(=O)N2` [10724/H02] were 2.2% and 17.6%.

The record behind these values is US20020026053A1, “Novel 3-(substituted) -2- indolinones compounds and use thereof as inhibitors of protein kinase activity” (priority 1997, published 2002).
